# Laboratory results published in patent publication US20200261427A1 (Al Therapeutics, Inc., priority 2019, published 2020).
# Legend:
# [1] = pH stability screen of rapamycin in 1:1 ethanol:water; assay type: physicochemical; conditions: 0.1 mg/mL in 1:1 ethanol:water, pH 3, 5, unbuffered; 1 week at 5, 25, 40° C. (FIG. 2)
# Experimental: 20 mM citrate buffers were prepared at pH 3, 5 and 7. With the exception of the pH 7 buffer, these buffers were miscible in 50% ethanol. Rather than reduce the buffer concentration to obtain a higher pH, the third solution was prepared with unbuffered water. An Orion 710A+ pH meter with a Thermo Scientific electrode was used for pH measurement.
# [2] = Solubility screening by gravimetric analysis; assay type: physicochemical
# Experimental: Solubility screening was performed by gravimetric analysis. In a glass vial, known amounts of API were added to a known amount of solvent and the sample was rotated with a vial rotator (VWR) at room temperature. If the API completely dissolved, an additional known amount was added. The samples were rotated for at least 48 hours after the last API addition before determining the gravimetric result (i.e., greater than a % w/w or less than a % w/w).
# [3] = Stability of rapamycin in solvents PG, TC, DMI; assay type: physicochemical; conditions: 0.2% w/w in DMI, 1 week at 5, 25, 40° C. (FIG. 3)
# [4] = Antioxidant screen in Transcutol; assay type: physicochemical
# Experimental: Since there was significant degradation in diethylene glycol monoethyl ether (TC) after 1 week, and TC can generate peroxides, it was selected as the solvent for the antioxidant screen. […] (1) No antioxidant; […] […] The 4-week data at 40° C. was used to calculate the main effects of the two antioxidants and their interaction (Box et al., 1978) for the assay values. The positive effect of BHA (+23.8) was twice the positive effect of Vit. E (+11.6).
# physchem = conditions: thermodynamic from solid
# Experimental: (§1) All solutions were buffered with 5 mM citrate buffer at pH 4.5.
# [5] = Microscopic examination of rapamycin crystal growth; conditions: rectangular crystals in gels showing crystal growth
# [6] = Saturation solubility in solvents and 10% co-solvent aqueous solutions
# Experimental: as §1
compound,measurement,setting,value
"CO[C@H]1C[C@@H]2CC[C@@H](C)[C@@](O)(O2)C(=O)C(=O)N2CCCC[C@H]2C(=O)O[C@H]([C@H](C)C[C@@H]2CC[C@@H](O)[C@H](OC)C2)CC(=O)[C@H](C)/C=C(\C)[C@@H](O)[C@@H](OC)C(=O)[C@H](C)C[C@H](C)/C=C/C=C/C=C/1C [Rapamycin, rapamycin]",rapamycin pH stability,[1],more stable at an acidic pH
same,Rapamycin solubility % w/w,[2]; Diethylene glycol monoethyl ether (TC),>13 % w/w
same,Rapamycin solubility % w/w,[2]; Diisopropyl adipate,<1.0 % w/w
same,Rapamycin solubility % w/w,[2]; Dimethyl isosorbide (DMI),>7 % w/w
same,Rapamycin solubility % w/w,[2]; Hexylene glycol,<1.0 % w/w
same,Rapamycin solubility % w/w,[2]; Isopropyl myristate,<0.1 % w/w
same,Rapamycin solubility % w/w,[2]; Light mineral oil,<0.3 % w/w
same,Rapamycin solubility % w/w,[2]; Medium chain triglycerides,<0.1 % w/w
same,Rapamycin solubility % w/w,[2]; Octyldodecanol,<1.0 % w/w
same,Rapamycin solubility % w/w,[2]; PEG 400,<1.5 % w/w
same,Rapamycin solubility % w/w,"[2]; Propylene glycol (PG), room temperature",<0.75 % w/w
same,solvent compatibility (solution stability),[3],most compatible with propylene glycol (PG) and least compatible with dimethyl isosorbide (DMI)
same,Rapamycin Assay (% of Initial),"[4]; 0.002% Vit. E, 25° C., week 1",98.3 % of Initial
same,Rapamycin Assay (% of Initial),"[4]; 0.002% Vit. E, 25° C., week 4",98.2 % of Initial
same,Rapamycin Assay (% of Initial),"[4]; 0.002% Vit. E, 40° C., week 1",96.8 % of Initial
same,Rapamycin Assay (% of Initial),"[4]; 0.002% Vit. E, 40° C., week 2",97.0 % of Initial
same,Rapamycin Assay (% of Initial),"[4]; 0.002% Vit. E, 40° C., week 4",82.2 % of Initial
same,Rapamycin Assay (% of Initial),"[4]; 0.01% BHA, 25° C., week 1",99.2 % of Initial
same,Rapamycin Assay (% of Initial),"[4]; 0.01% BHA, 25° C., week 4",98.3 % of Initial
same,Rapamycin Assay (% of Initial),"[4]; 0.01% BHA, 40° C., week 1",97.1 % of Initial
same,Rapamycin Assay (% of Initial),"[4]; 0.01% BHA, 40° C., week 2",98.1 % of Initial
same,Rapamycin Assay (% of Initial),"[4]; 0.01% BHA, 40° C., week 4",94.4 % of Initial
same,Rapamycin Assay (% of Initial),"[4]; 0.2% w/w in Transcutol, No Antioxidant, 25° C., week 1",95.7 % of Initial
same,Rapamycin Assay (% of Initial),"[4]; BHA + Vit. E, 25° C., week 1",98.8 % of Initial
same,Rapamycin Assay (% of Initial),"[4]; BHA + Vit. E, 25° C., week 4",98.7 % of Initial
same,Rapamycin Assay (% of Initial),"[4]; BHA + Vit. E, 40° C., week 1",96.9 % of Initial
same,Rapamycin Assay (% of Initial),"[4]; BHA + Vit. E, 40° C., week 2",98.7 % of Initial
same,Rapamycin Assay (% of Initial),"[4]; BHA + Vit. E, 40° C., week 4",96.2 % of Initial
same,Rapamycin Assay (% of Initial),"[4]; No Antioxidant, 25° C., week 4",84.6 % of Initial
same,Rapamycin Assay (% of Initial),"[4]; No Antioxidant, 40° C., week 1",87.3 % of Initial
same,Rapamycin Assay (% of Initial),"[4]; No Antioxidant, 40° C., week 2",79.0 % of Initial
same,Rapamycin Assay (% of Initial),"[4]; No Antioxidant, 40° C., week 4",60.8 % of Initial
same,solubility,"physchem; 10% TC and 10% DMI aqueous solutions versus water, pH 4.5, aqueous with cosolvent or surfactant or cyclodextrin",1.5 to 2 µg/mL
same,solubility,"physchem; 10% propylene glycol (PG) aqueous solution, citrate buffered, pH 4.5, aqueous with cosolvent or surfactant or cyclodextrin",2.9 µg/mL
same,solubility,"physchem; pH 4.5, aqueous with cosolvent or surfactant or cyclodextrin",5.2 µg/mL
same,solubility,"physchem; water, citrate buffered, pH 4.5, aqueous buffer",2.9 µg/mL
same,length of rapamycin crystals grown,[5],25-100 microns
same,Rapamycin Solubility,"[6]; 10% Diethylene Glycol Monoethyl Ether (TC), pH 4.5, 5 mM citrate",4.6 µg/mL
same,saturation solubility,[6]; in TC,15.5 % w/w
